# Results as given in US8202865B2, “Oxadiazole derivatives” (Merck Serono SA, priority 2007, dated 2012).
# Counter-ions that a name gives are not always drawn.
# Target: T1, S1P1 (Homo sapiens, UniProt P21453)
# T1 construct: expressed in transfected cells; host or cells: CHO cells (membranes)
# Assay: 35S-GTPγS binding, S1P1 membranes
# Assay type: biochemical
# Conditions: membranes from CHO cells expressing S1P1; 60 min 30° C.
# Method: Receptor binding assay: Membranes were prepared from CHO cells expressing S1P1 or S1P3 for use in ligand and […] binding studies. Cells were suspended in 50 mM TRIS, pH 7.4, 2 mM EDTA, 250 mM Sucrose (buffer A) and 1× Complete protease inhibitor cocktail (Roche), and disrupted at 4° C. by N2 decompression using a cell disruption bomb (Parr Instrument). Following centrifugation at 1000 RPM for 10 min at 4° C., the supernatant was suspended in buffer A and centrifuged again at 19000 RPM for 60 min at 4° C. The pellet was then suspended in 10 mM HEPES, pH 7.4, 1 mM EDTA, 250 mM Sucrose (Buffer B), and 1× Complete EDTA-free protease inhibitor cocktail and homogenized using a potter. Membranes were flash frozen in liquid N2 and stored at −80° C. [33P]sphingosine 1-phosphate (3000 Ci/mmol; American Radiolabeled Chemicals, Inc.) was added to test compounds in DMSO. Membranes and WGA SPA beads (GE Healthcare) were added to give a final volume of 100 μl in 96-well plates with assay concentrations of 25 pM or 10 pM [33P]sphingosine 1-phosphate (respectively for S1P1 or S1P3), 50 mM HEPES, pH 7.5, 5 mM MgCl2, 100 mM NaCl, 0.4% fatty acid-free BSA, 1-5 μg/well of proteins and 100 μg/well of WGA SPA beads. Binding was performed for 60 min at RT on a shaker and bound radioactivity was measured on a PerkinElmer 1450 MicroBeta counter. Specific binding was calculated by subtracting remaining radioactivity in the presence of 1000-fold excess of unlabeled S1P. Binding data were analyzed using the GraphPad Prism program.
# Measurements of ^35S-GTPγS Binding: Membranes (1 to 10 μg protein) prepared as described above, were incubated in 96-well Scintiplates (PerkinElmer) with test compounds diluted in DMSO, in 180 μl of 20 mM HEPES, pH 7.4, 10 mM MgCl2, 2 μg/well Saponin, 0.2% fatty acid free BSA (Assay buffer), 140 mM NaCl and 1.7 μM GDP. The assay was initiated with the addition of 20 μl of 1.5 nM [35S]-GTPγS (1100 Ci/mmol; GE Healthcare) in assay buffer. After 60 min incubation at 30° C. on a shaker, plates were centrifuged for 10 min at 2000 RPM. Supernatant was discarded and membrane bound radioactivity was measured on a PerkinElmer 1450 MicroBeta counter. Triplicate samples were averaged and expressed as % response relative to S1P activation in absence of compound (n=2).
# T1 sequence (P21453 whole entry, species assumed): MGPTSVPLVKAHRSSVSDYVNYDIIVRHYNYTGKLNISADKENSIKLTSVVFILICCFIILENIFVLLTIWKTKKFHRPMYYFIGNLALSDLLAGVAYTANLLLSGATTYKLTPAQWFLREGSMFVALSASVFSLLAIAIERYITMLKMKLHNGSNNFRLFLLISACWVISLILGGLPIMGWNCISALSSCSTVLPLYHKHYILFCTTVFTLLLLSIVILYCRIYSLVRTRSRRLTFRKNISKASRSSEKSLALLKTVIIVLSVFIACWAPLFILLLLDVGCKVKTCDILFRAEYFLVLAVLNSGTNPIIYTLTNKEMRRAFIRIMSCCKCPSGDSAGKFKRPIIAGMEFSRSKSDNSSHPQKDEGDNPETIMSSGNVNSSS
row,EC50 [nM],Structure (SMILES)
1,2.9,"COCc1cc(-c2nc(-c3cccc(C(=O)NCCC(=O)OC)c3)no2)ccc1-c1ccccc1C [Example 132, Methyl N-(3-{5-[2-(methoxymethyl)-2′-methylbiphenyl-4-yl]-1,2,4-oxadiazol-3-yl}benzoyl)-beta-alaninate]"
2,2.5,"CCc1ccccc1-c1ccc(-c2nc(-c3ccc(F)c(CN(C)CCC(=O)O)c3)no2)cc1COC [Example 156, N-(5-{5-[2′-ethyl-2-(methoxymethyl)biphenyl-4-yl]-1,2,4-oxadiazol-3-yl}-2-fluorobenzyl)-N-methyl-beta-alanine, Hydrochloride salt]"
3,0.6,"COCc1cc(-c2nc(-c3cccc(COCC(=O)O)c3)no2)ccc1-c1ccccc1C [Example 160, [(3-{5-[2-(methoxymethyl)-2′-methylbiphenyl-4-yl]-1,2,4-oxadiazol-3-yl}benzyl)oxy]acetic acid]"
4,16,"COCCNC(=O)c1cccc(-c2noc(-c3ccc(-c4ccccc4C)c(COC)c3)n2)c1 [Example 181, N-(2-methoxyethyl)-3-{5-[2-(methoxymethyl)-2′-methylbiphenyl-4-yl]-1,2,4-oxadiazol-3-yl}benzamide]"
5,2010,"COCc1ccccc1-c1ccc(-c2nc(-c3ccc(C(=O)O)c(F)c3)no2)cc1C [Example 87, 2-fluoro-4-{5-[2′-(methoxymethyl)-2-methylbiphenyl-4-yl]-1,2,4-oxadiazol-3-yl}benzoic acid]"
6,460,"COCc1cc(-c2nc(-c3ccc(C(=O)O)c(F)c3)no2)ccc1-c1cc(F)ccc1OC [Example 89, 2-fluoro-4-{5-[5′-fluoro-2′-methoxy-2-(methoxymethyl)biphenyl-4-yl]-1,2,4-oxadiazol-3-yl}benzoic acid]"
7,2.9,"COCc1cc(-c2nc(-c3cccc(COCC(=O)OC)c3)no2)ccc1-c1ccccc1C [Example 159, Methyl [(3-{5-[2-(methoxymethyl)-2′-methylbiphenyl-4-yl]-1,2,4-oxadiazol-3-yl}benzyl)oxy]acetate]"
8,46,"COCc1cc(-c2nc(-c3cccc(C(=O)N(C)CC(=O)OC)c3)no2)ccc1-c1ccccc1C [Example 136, Methyl N-(3-{5-[2-(methoxymethyl)-2′-methylbiphenyl-4-yl]-1,2,4-oxadiazol-3-yl}benzoyl)-N-methylglycinate]"
9,240,"COCc1cc(-c2nc(-c3ccc(C(=O)N(C)CC(=O)OC)c(F)c3)no2)ccc1-c1ccccc1C [Example 116, methyl N-(2-fluoro-4-{5-[2-(methoxymethyl)-2′-methylbiphenyl-4-yl]-1,2,4-oxadiazol-3-yl}benzoyl)-N-methylglycinate]"
10,5.1,"COCc1cc(-c2nc(-c3cccc(C(=O)NCC(=O)O)c3)no2)ccc1-c1ccccc1C [Example 134, N-(3-{5-[2-(methoxymethyl)-2′-methylbiphenyl-4-yl]-1,2,4-oxadiazol-3-yl}benzoyl)glycine]"
11,86,"COCc1cc(-c2nc(-c3ccc(C(=O)N(C)CC(=O)O)c(F)c3)no2)ccc1-c1ccccc1C [Example 125, N-(2-fluoro-4-{5-[2-(methoxymethyl)-2′-methylbiphenyl-4-yl]-1,2,4-oxadiazol-3-yl}benzoyl)-N-methylglycine]"
12,281,"CCOC(=O)CC(C)NC(=O)c1ccc(-c2noc(-c3ccc(-c4ccccc4C)c(COC)c3)n2)cc1F (centres unmarked) [Example 121, Ethyl 3-[(2-fluoro-4-{5-[2-(methoxymethyl)-2′-methylbiphenyl-4-yl]-1,2,4-oxadiazol-3-yl}benzoyl)amino]butanoate]"
13,25.2,"COCc1cc(-c2nc(-c3cccc(CNCCC(=O)OC(C)(C)C)c3)no2)ccc1-c1ccccc1C [Example 153, tert-butyl N-(3-{5-[2-(methoxymethyl)-2′-methylbiphenyl-4-yl]-1,2,4-oxadiazol-3-yl}benzyl)-beta-alaninate]"
14,1580,"COCc1cc(-c2nc(-c3ccc(C(=O)O)c(F)c3)no2)ccc1-c1cccc(OC)c1OC [Example 82, 4-{5-[2′,3′-dimethoxy-2-(methoxymethyl)biphenyl-4-yl]-1,2,4-oxadiazol-3-yl}-2-fluorobenzoic acid]"
15,11,"COCc1cc(-c2nc(-c3cccc(C(N)=O)c3)no2)ccc1-c1ccccc1C [Example 182, 3-{5-[2-(methoxymethyl)-2′-methylbiphenyl-4-yl]-1,2,4-oxadiazol-3-yl}benzamide]"

# Continued, compound first:
row,Structure (SMILES),EC50 [nM]
1,"COCc1cc(-c2nc(-c3ccc(C(=O)OC)c(F)c3)no2)ccc1OC(C)C [Example 110, methyl 2-fluoro-4-{5-[4-isopropoxy-3-(methoxymethyl)phenyl]-1,2,4-oxadiazol-3-yl}benzoate]",240
2,"Cc1cc(-c2nc(-c3ccc(C(=O)O)c(F)c3)no2)ccc1-c1ccccc1-c1ccccc1 [Example 31, 2-fluoro-4-[5-(2-methyl-1,1′:2′,1″-terphenyl-4-yl)-1,2,4-oxadiazol-3-yl]benzoic acid]",2400
3,"O=C(O)COc1ccc(-c2noc(-c3cnc(OCC4CC4)c(Cl)c3)n2)cc1F [Example 52, (4-{5-[5-chloro-6-(cyclopropylmethoxy)pyridin-3-yl]-1,2,4-oxadiazol-3-yl}-2-fluorophenoxy)acetic acid]",1540
4,"COc1ccc(OC)c(-c2ccc(-c3nc(-c4ccc(C(=O)O)c(F)c4)no3)cc2C)c1 [Example 24, 4-[3-(2′,5′-dimethoxy-2-methylbiphenyl-4-yl)-1,2,4-oxadiazol-3-yl]-2-fluorobenzoic acid]",10400
5,"COCc1cc(-c2nc(-c3ccc(F)c(CN(C)CC(=O)O)c3)no2)ccc1OC(C)C [Example 158, N-(2-fluoro-5-{5-[4-isopropoxy-3-(methoxymethyl)phenyl]-1,2,4-oxadiazol-3-yl}benzyl)-N-methylglycine, Hydrochloride salt]",10
6,"COc1cc(C(=O)O)ccc1-c1noc(-c2ccc(-c3ccccc3C)c(C)c2)n1 [Example 45, 4-[5-(2,2′-dimethylbiphenyl-4-yl)-1,2,4-oxadiazol-3-yl]-3-methoxybenzoic acid]",4480
7,"COc1cc(-c2nc(-c3ccc(S(N)(=O)=O)cc3)no2)ccc1-c1cscc1C [Example 39, 4-{5-[3-methoxy-4-(4-methyl-3-thienyl)phenyl]-1,2,4-oxadiazol-3-yl}benzenesulfonamide]",2.9
8,"Cc1ccccc1-c1ccc(-c2nc(-c3ccc(C(=O)O)c(F)c3)no2)cc1COCC(C)C [Example 60, 2-fluoro-4-{5-[2-(isobutoxymethyl)-2′-methylbiphenyl-4-yl]-1,2,4-oxadiazol-3-yl}benzoic acid]",3700
9,"Cc1ccccc1-c1ccc(-c2nc(-c3ccc(C(=O)O)c(F)c3)no2)cc1CN1CCCC1 [Example 76, 2-fluoro-4-{5-[2′-methyl-2-(pyrrolidin-1-ylmethyl)biphenyl-4-yl]-1,2,4-oxadiazol-3-yl}benzoic acid, Hydrochloride salt]",772
10,"O=C(O)c1ccc(-c2noc(-c3ccc(N4CCOCC4)c(C(F)(F)F)c3)n2)cc1F [Example 17, 2-fluoro-4-{5-[4-morpholin-4-yl-3-(trifluoromethyl)phenyl]-1,2,4-oxadiazol-3-yl}benzoic acid]",3450
11,"COCc1cc(-c2nc(-c3cccc(OCCCC(=O)O)c3)no2)ccc1N1CCCCC1C (centres unmarked) [Example 164, 4-(3-{5-[3-(methoxymethyl)-4-(2-methylpiperidin-1-yl)phenyl]-1,2,4-oxadiazol-3-yl}phenoxy)butanoic acid]",1.5
